According to patent publication US20230114753A1, “USE OF A GROUP OF MARKERS FOR DIAGNOSING AND ADJUSTING TREATMENT OF PRIMARY BILIARY CHOLANGITIS, PHARMACEUTICAL COMPOSITION AND SOLID DOSAGE FORM FOR TREATING PRIMARY BILIARY CHOLANGITIS” (MILI HEALTHCARE TRADE DMCC, LIMITED LIABILITY COMPANY, priority 2020, published 2023):
Values joined by “and” are separate entries in the source; they are usually repeats but may differ in a detail not shown here. Equal entries are not always repeated. Where two headings read alike, the source gives them in different places. Values belong to the compound of their own block, whether it stands above or below them.

Columns and labels:
[1] = Pharmacokinetics of obeticholic acid taken orally, in a monocomposition or with UDCA; assay type: in vivo
Experimental: A study of the pharmacokinetics of obeticholic acid in a monocom position and as part of a composition with ursodeoxycholic acid when taken orally was conducted.

[2] = tested on: patients diagnosed with PBC; assay: Double-blind clinical study: biochemical and molecular markers in blood of PBC patients treated with UDCA or UDCA+OCA; assay type: in vivo, human; conditions: blood plasma
Experimental: To determine the concentration level values of the markers in the blood serum, chemiluminescence and enzyme immunoassay methods were used.
A double-blind clinical study was conducted on the effectiveness of the combined pharmaceutical composition comprising UDCA and OCA compared with the monocomposition comprising only UDCA for the patients with the following concentration level values of the claimed group of the markers (corresponding to 1 Stage of PBC): • IL-6—at least 10%; • Nf-kB—at least 5%; • MCP-1/CCL2—at least 5%; • Bcl-2—at least 5%; • TNF-α—at least 12%; • MDA—at least 0.5%.
The patients diagnosed with PBC were divided into 3 groups depending on the treatment regimen:
2) Group UDCA 15 mg/kg+OCA 5 mg;
3) Group UDCA 15 mg/kg+OCA 10 mg.
After the treatment, venous blood samples were taken from the patients and the concentrations of biochemical and molecular markers were determined.
As markers of the treatment effectiveness, two groups of markers were used: biochemical and molecular biological.
The first group included: ALT, AST, GGT (Gamma-glutamyl Transferase), AP and total bilirubin.
The second group included: TNF-α, IL-6, Nf-kB, MCP-1/CCL2, BCL-2, and MDA.

patients with PBC = assay: Effectiveness of the PBC treatment using various regimens (positive response, Paris2 system, 12 months); assay type: in vivo, human; conditions: Paris2 criteria
Experimental: A double-blind clinical study on the effectiveness of the combined pharmaceutical composition comprising UDCA and OCA compared to UDCA was conducted.
To study the effectiveness, the tablet embodiments No. 15 and No. 16 were used.
A study on the effectiveness of the various treatment regimens for the patients with PBC was conducted. A total of three treatment regimens were used in the study: • 1) UDCA monocomposition at a dose of 15 mg/kg/day. • 2) Combined pharmaceutical composition in the pharmaceutical form with the modified release and at a dose of UDCA 15 mg/kg+OCA 5 mg per day. • 3) Combined pharmaceutical composition in the pharmaceutical form with the modified release and at a dose of UDCA 15 mg/kg+OCA 10 mg per day.
The studies were carried out for 12 months, during which the quality of the treatment was assessed by measuring biochemical and molecular biological markers (see above).
The evaluation of the effectiveness of the treatment was carried out on the basis of the Paris2 system, according to which the criteria for a satisfactory treatment are: • ALT level≤3-fold upper limit of normal (ULN); • AST level≤2-fold ULN; • normal bilirubin level.

[3] = month 6 of treatment, listed as UDCA 15 mg/kg
[4] = month 12 of treatment, listed as UDCA 15 mg/kg

- AUC(0-t) ([1]; in vivo, po): 34.8 ng·h/mL
- bioavailability ([1]; in vivo, po, read-out: Bioavailability): 89%
- Cmax ([1]; in vivo, po, read-out: Cmax): 16.7 ng/mL
- Tmax ([1]; listed as OCA 5 mg): 0.667 h
- AUCt ([1]; listed as OCA 10 mg): 66.1 ng·h/mL
- Cmax ([1]; listed as OCA 10 mg): 26.4 ng/mL
- Tmax ([1]; listed as OCA 10 mg): 1.5 h
- bioavailability ([1]; listed as OCA 10 mg): 91%
SMILES: CC[C@H]1[C@@H](O)[C@@H]2[C@H](CC[C@]3(C)[C@@H]([C@H](C)CCC(=O)O)CC[C@@H]23)[C@@]2(C)CC[C@@H](O)C[C@@H]12 [OCA, obeticholic acid]

SMILES: C[C@H](CCC(=O)O)[C@H]1CC[C@H]2[C@@H]3[C@@H](O)C[C@@H]4C[C@H](O)CC[C@]4(C)[C@H]3CC[C@]12C [UDCA, ursodeoxycholic acid]
- ALT ([2]; month 1 of treatment): 80.4 U/l
- ALT, in % of the initial value ([2]; month 1 of treatment): 97.22%
- AP ([2]; month 1 of treatment): 352.5 U/l
- AP, in % of the initial value ([2]; month 1 of treatment): 97.20%
- AST ([2]; month 1 of treatment): 100.7 U/l
- AST, in % of the initial value ([2]; month 1 of treatment): 95.72%
- Bcl-2 ([2]; month 1 of treatment): 0.68 U/ml
- Bcl-2, in % of the initial value ([2]; month 1 of treatment): 94.44%
- GGT ([2]; month 1 of treatment): 198 U/l
- GGT, in % of the initial value ([2]; month 1 of treatment): 95.42%
- IL-6 ([2]; month 1 of treatment): 23.35 pg/mL
- IL-6, in % of the initial value ([2]; month 1 of treatment): 99.19%
- MCP-1/CCL2 ([2]; month 1 of treatment): 465.4 pg/mL
- MCP-1/CCL2, in % of the initial value ([2]; month 1 of treatment): 99.34%
- MDA ([2]; month 1 of treatment): 22.87 nmol/mL
- MDA, in % of the initial value ([2]; month 1 of treatment): 99.09%
- Nf-kB ([2]; month 1 of treatment): 64.4 pg/mL
- Nf-kB, in % of the initial value ([2]; month 1 of treatment): 98.32%
- TNF-α ([2]; month 1 of treatment): 0.33 ng/mL
- TNF-α, in % of the initial value ([2]; month 1 of treatment): 100.00%
- Total bilirubin ([2]; month 1 of treatment): 39.8 µmol/L
- Total bilirubin, in % of the initial value ([2]; month 1 of treatment): 96.18%
- ALT ([2]; month 3 of treatment): 74.81 U/l
- ALT, in % of the initial value ([2]; month 3 of treatment): 90.46%
- AP ([2]; month 3 of treatment): 290.6 U/l
- AP, in % of the initial value ([2]; month 3 of treatment): 88.10%
- AST ([2]; month 3 of treatment): 87.3 U/l
- AST, in % of the initial value ([2]; month 3 of treatment): 82.98%
- Bcl-2 ([2]; month 3 of treatment): 0.62 U/ml
- Bcl-2, in % of the initial value ([2]; month 3 of treatment): 86.11%
- GGT ([2]; month 3 of treatment): 178.8 U/l
- GGT, in % of the initial value ([2]; month 3 of treatment): 86.17%
- IL-6 ([2]; month 3 of treatment): 22.95 pg/mL
- IL-6, in % of the initial value ([2]; month 3 of treatment): 97.49%
- MCP-1/CCL2 ([2]; month 3 of treatment): 448 pg/mL
- MCP-1/CCL2, in % of the initial value ([2]; month 3 of treatment): 95.62%
- MDA ([2]; month 3 of treatment): 22.54 nmol/mL
- MDA, in % of the initial value ([2]; month 3 of treatment): 97.66%
- Nf-kB ([2]; month 3 of treatment): 64.1 pg/mL
- Nf-kB, in % of the initial value ([2]; month 3 of treatment): 97.86%
- TNF-α ([2]; month 3 of treatment): 0.324 ng/mL
- TNF-α, in % of the initial value ([2]; month 3 of treatment): 98.18%
- Total bilirubin ([2]; month 3 of treatment): 33.8 µmol/L
- Total bilirubin, in % of the initial value ([2]; month 3 of treatment): 87.50%
- ALT, in % of the initial value [2, 3]: 67.32% and 82.47%
- AP, in % of the initial value [2, 3]: 63.93% and 74.45%
- AST, in % of the initial value [2, 3]: 67.24% and 77.38%
- Bcl-2, in % of the initial value [2, 3]: 95.24% and 80.56%
- GGT, in % of the initial value [2, 3]: 65.16% and 75.28%
- IL-6, in % of the initial value [2, 3]: 85.81% and 93.46%
- MCP-1/CCL2, in % of the initial value [2, 3]: 88.00% and 92.08%
- MDA, in % of the initial value [2, 3]: 95.36% and 96.92%
- Nf-kB, in % of the initial value [2, 3]: 91.91% and 95.88%
- TNF-α, in % of the initial value [2, 3]: 87.88% and 95.45%
- ALT ([2]; month 9 of treatment): 62.47 U/l
- ALT, in % of the initial value ([2]; month 9 of treatment): 75.54%
- AP ([2]; month 9 of treatment): 247.5 U/l
- AP, in % of the initial value ([2]; month 9 of treatment): 69.18%
- AST ([2]; month 9 of treatment): 74.5 U/l
- AST, in % of the initial value ([2]; month 9 of treatment): 70.82%
- Bcl-2 ([2]; month 9 of treatment): 0.54 U/ml
- Bcl-2, in % of the initial value ([2]; month 9 of treatment): 75.00%
- GGT ([2]; month 9 of treatment): 141.5 U/l
- GGT, in % of the initial value ([2]; month 9 of treatment): 68.19%
- IL-6 ([2]; month 9 of treatment): 21.48 pg/mL
- IL-6, in % of the initial value ([2]; month 9 of treatment): 91.25%
- MCP-1/CCL2 ([2]; month 9 of treatment): 419.7 pg/mL
- MCP-1/CCL2, in % of the initial value ([2]; month 9 of treatment): 89.58%
- MDA ([2]; month 9 of treatment): 22.12 nmol/mL
- MDA, in % of the initial value ([2]; month 9 of treatment): 95.84%
- Nf-kB ([2]; month 9 of treatment): 61.4 pg/mL
- Nf-kB, in % of the initial value ([2]; month 9 of treatment): 93.74%
- TNF-α ([2]; month 9 of treatment): 0.3 ng/mL
- TNF-α, in % of the initial value ([2]; month 9 of treatment): 90.91%
- Total bilirubin ([2]; month 9 of treatment): 28.03 µmol/L
- Total bilirubin, in % of the initial value ([2]; month 9 of treatment): 70.49%
- ALT ([2]; month 12 of treatment): 55.67 U/l
- ALT, in % of the initial value ([2]; month 12 of treatment): 67.32%
- AP ([2]; month 12 of treatment): 235.36 U/l
- AP, in % of the initial value ([2]; month 12 of treatment): 63.93%
- AST ([2]; month 12 of treatment): 70.73 U/l
- Bcl-2 ([2]; month 12 of treatment): 0.52 U/ml
- GGT ([2]; month 12 of treatment): 135.2 U/l
- GGT, in % of the initial value ([2]; month 12 of treatment): 65.16%
- IL-6 ([2]; month 12 of treatment): 20.2 pg/mL
- IL-6, in % of the initial value ([2]; month 12 of treatment): 85.81%
- MCP-1/CCL2 ([2]; month 12 of treatment): 412.3 pg/mL
- MCP-1/CCL2, in % of the initial value ([2]; month 12 of treatment): 88.00%
- MDA ([2]; month 12 of treatment): 22.01 nmol/mL
- MDA, in % of the initial value ([2]; month 12 of treatment): 95.36%
- Nf-kB ([2]; month 12 of treatment): 60.2 pg/mL
- Nf-kB, in % of the initial value ([2]; month 12 of treatment): 91.91%
- TNF-α ([2]; month 12 of treatment): 0.29 ng/mL
- TNF-α, in % of the initial value ([2]; month 12 of treatment): 87.88%
- Total bilirubin ([2]; month 12 of treatment): 26.03 µmol/L
- Total bilirubin, in % of the initial value ([2]; month 12 of treatment): 64.58%
- AST, in % of the initial value [2, 4]: 67.24% and 67.23%
- Bcl-2, in % of the initial value [2, 4]: 72% and 72.22%
- Number of patients with positive response to treatment (%) (patients with PBC): 58.82%
- Number of patients with positive response to treatment (number) (patients with PBC; groups of 68, 65, 63 patients): 40
